According to PubChem BioAssay AID330 (DTP/NCI, 2004):
Values joined by “and” are separate entries in the source; they are usually repeats but may differ in a detail not shown here. Equal entries are not always repeated. Inconclusive results and toxic doses are left out.

System: P388 leukemia ip, CD2F1 mice, survival T/C
Experiment: NCI In Vivo Anticancer Drug Screen. Data for tumor model P388 Leukemia (intraperitoneal) in CD2F1 (CDF1) mice
Details: endpoint: median survival time, higher = longer survival
Protocol: The antitumor activity of compounds was measured in mice bearing transplantable tumors. Survival or tumor size were measured and the results are expressed as the measurement made in the treated group (T) divided by the measurement made in the vehicle treated control group (C). The tumor model used in this assay is P388 Leukemia (intraperitoneal) in CD2F1 (CDF1) mice

[1] = dose: 50.0 mg/kg/injection, schedule: Q01DX009 (ip), vehicle: Klucel (hydroxypropylcellulose) (HPC)
[2] = dose: 100.0 mg/kg/injection, schedule: Q01DX009 (ip), vehicle: Klucel (hydroxypropylcellulose) (HPC)
[3] = dose: 200.0 mg/kg/injection, schedule: Q01DX009 (ip), vehicle: Klucel (hydroxypropylcellulose) (HPC)
[4] = dose: 50.0 mg/kg/injection, schedule: Q01DX009 (ip), vehicle: saline with Tween-80
[5] = dose: 100.0 mg/kg/injection, schedule: Q01DX009 (ip), vehicle: saline with Tween-80
[6] = dose: 200.0 mg/kg/injection, schedule: Q01DX009 (ip), vehicle: saline with Tween-80
[7] = dose: 50.0 mg/kg/injection, schedule: Q01DX005 (ip), vehicle: Klucel (hydroxypropylcellulose) (HPC)
[8] = dose: 100.0 mg/kg/injection, schedule: Q01DX005 (ip), vehicle: Klucel (hydroxypropylcellulose) (HPC)
[9] = dose: 200.0 mg/kg/injection, schedule: Q01DX005 (ip), vehicle: Klucel (hydroxypropylcellulose) (HPC)
[10] = dose: 1.56 mg/kg/injection, schedule: Q01DX005 (ip), vehicle: saline
[11] = dose: 3.12 mg/kg/injection, schedule: Q01DX005 (ip), vehicle: saline
[12] = dose: 50.0 mg/kg/injection, schedule: Q01DX005 (ip), vehicle: saline with Tween-80
[13] = dose: 100.0 mg/kg/injection, schedule: Q01DX005 (ip), vehicle: saline with Tween-80
[14] = dose: 200.0 mg/kg/injection, schedule: Q01DX005 (ip), vehicle: saline with Tween-80

O=C1c2cc([N+](=O)[O-])cc3cc([N+](=O)[O-])cc(c23)C(=O)N1CCNCCNCCNCCN1C(=O)c2cc([N+](=O)[O-])cc3cc([N+](=O)[O-])cc(c23)C1=O
T/C (dose: 12.5 mg/kg/injection, schedule: Q04DX002 (ip), vehicle: saline with Tween-80): 112 % of control | T/C (dose: 25.0 mg/kg/injection, schedule: Q04DX002 (ip), vehicle: saline with Tween-80): 121 % of control | T/C (dose: 50.0 mg/kg/injection, schedule: Q04DX002 (ip), vehicle: saline with Tween-80): 122 % of control

CCCCCCCC(=O)Nc1ncc([N+](=O)[O-])s1
T/C [1]: 106 % of control | T/C [2]: 106 % of control | T/C [3]: 113 % of control

C=C1Sc2ccccc2N1C
T/C (dose: 6.25 mg/kg/injection, schedule: Q01DX009 (ip), vehicle: Klucel (hydroxypropylcellulose) (HPC)): 111 % of control | T/C (dose: 12.5 mg/kg/injection, schedule: Q01DX009 (ip), vehicle: Klucel (hydroxypropylcellulose) (HPC)): 107 % of control and 114 % of control | T/C (dose: 25.0 mg/kg/injection, schedule: Q01DX009 (ip), vehicle: Klucel (hydroxypropylcellulose) (HPC)): 123 % of control

CCOC(=O)/C=C(\C)NC1CC(OC2CC(O)(C(C)=O)Cc3c(O)c4c(c(O)c32)C(=O)c2c(OC)cccc2C4=O)OC(C)C1O (configuration not stated)
T/C (dose: 6.25 mg/kg/injection, schedule: Q04DX003 (ip), vehicle: distilled water + Tween-80): 110 % of control | T/C (dose: 12.5 mg/kg/injection, schedule: Q04DX003 (ip), vehicle: distilled water + Tween-80): 119 % of control | T/C (dose: 50.0 mg/kg/injection, schedule: Q04DX003 (ip), vehicle: distilled water + Tween-80): 118 % of control

COc1cccc2c1C(=O)c1c(O)c3c(c(O)c1C2=O)CC(O)(/C(C)=N/NC(=O)CC(=O)N/N=C(\C)C1(O)Cc2c(O)c4c(c(O)c2C(OC2CC(N)C(O)C(C)O2)C1)C(=O)c1c(OC)cccc1C4=O)CC3OC1CC(N)C(O)C(C)O1 (configuration not stated)
T/C (dose: 3.13 mg/kg/injection, schedule: Q01DX009 (ip), vehicle: water): 153 % of control | T/C (dose: 3.13 mg/kg/injection, schedule: Q04DX003 (ip), vehicle: water): 101 % of control | T/C (dose: 6.25 mg/kg/injection, schedule: Q01DX009 (ip), vehicle: water): 169 % of control | T/C (dose: 6.25 mg/kg/injection, schedule: Q04DX003 (ip), vehicle: water): 110 % of control | T/C (dose: 12.5 mg/kg/injection, schedule: Q04DX003 (ip), vehicle: water): 112 % of control

CN1C(=O)CCC1(O)C1SCCCS1 (configuration not stated)
T/C (dose: 50.0 mg/kg/injection, schedule: Q01DX005 (ip), vehicle: saline): 102 % of control | T/C (dose: 100.0 mg/kg/injection, schedule: Q01DX005 (ip), vehicle: saline): 100 % of control | T/C (dose: 200.0 mg/kg/injection, schedule: Q01DX005 (ip), vehicle: saline): 102 % of control

CCCCOCC(=O)OC
T/C [4]: 102 % of control | T/C [5]: 102 % of control | T/C [6]: 107 % of control

CC(=O)Cc1ncn(-c2cc(C)on2)n1
T/C (dose: 60.0 mg/kg/injection, schedule: Q01DX005 (ip), vehicle: Klucel (hydroxypropylcellulose) (HPC)): 111 % of control | T/C (dose: 120.0 mg/kg/injection, schedule: Q01DX005 (ip), vehicle: Klucel (hydroxypropylcellulose) (HPC)): 113 % of control | T/C (dose: 240.0 mg/kg/injection, schedule: Q01DX005 (ip), vehicle: Klucel (hydroxypropylcellulose) (HPC)): 100 % of control

COc1ccc(S(=O)(=O)c2cc(C)c3ccc4ccccc4c3n2)cc1
T/C [7]: 101 % of control | T/C [8]: 102 % of control | T/C [9]: 98 % of control

CN(C)CC(CN(C)C)C(=O)/C=C/c1ccccc1
T/C [10]: 99 % of control | T/C [11]: 107 % of control

Cc1ncc(CNC(=O)NCCCl)c(N)n1
T/C [1]: 102 % of control | T/C [2]: 103 % of control | T/C [3]: 108 % of control

CN(C)CCOC(=O)Nc1ccc(Cc2ccc(NC(=O)OCCN(C)C)cc2)cc1
T/C (dose: 15.0 mg/kg/injection, schedule: Q01DX005 (ip), vehicle: saline with Tween-80): 109 % of control | T/C (dose: 30.0 mg/kg/injection, schedule: Q01DX005 (ip), vehicle: saline with Tween-80): 101 % of control | T/C (dose: 60.0 mg/kg/injection, schedule: Q01DX005 (ip), vehicle: saline with Tween-80): 101 % of control and 109 % of control

O=C(NC(=S)c1cccs1)NS(=O)(=O)c1ccc(Cl)cc1
T/C (dose: 25.0 mg/kg/injection, schedule: Q01DX001 (ip), vehicle: saline with Tween-80): 98 % of control | T/C (dose: 50.0 mg/kg/injection, schedule: Q01DX001 (ip), vehicle: saline with Tween-80): 98 % of control | T/C (dose: 100.0 mg/kg/injection, schedule: Q01DX001 (ip), vehicle: saline with Tween-80): 98 % of control

O=C(/C=C/C1CCCC(O)C1)C1CCCCC1 (configuration not stated)
T/C [12]: 91 % of control | T/C [13]: 89 % of control | T/C [14]: 91 % of control

O=C1COC(c2ccccc2O)=NN1CCCl
T/C [4]: 103 % of control | T/C [5]: 103 % of control | T/C [6]: 110 % of control

CC[N+](C)(CC)CCOc1ccc(OCC[N+](C)(CC)CC)c2c1C(=O)c1ccccc1C2=O
T/C (dose: 0.78 mg/kg/injection, schedule: Q01DX005 (ip), vehicle: saline): 98 % of control | T/C [10]: 109 % of control | T/C [11]: 100 % of control

COc1nc(N)nc2c1ncn2C1OC(CO)CC1O (configuration not stated)
T/C [12]: 86 % of control | T/C [13]: 88 % of control | T/C [14]: 97 % of control

CC1=CC(=N/Br)/C=CC/1=N/Br
T/C [12]: 108 % of control | T/C [13]: 100 % of control | T/C [14]: 99 % of control

O=C(O)C(c1ccccc1)C1CCCC1 (configuration not stated)
T/C (dose: 50.0 mg/kg/injection, schedule: Q04DX003 (ip), vehicle: saline with Tween-80): 110 % of control | T/C (dose: 100.0 mg/kg/injection, schedule: Q04DX003 (ip), vehicle: saline with Tween-80): 110 % of control | T/C (dose: 200.0 mg/kg/injection, schedule: Q04DX003 (ip), vehicle: saline with Tween-80): 105 % of control

COC(=O)C1=C(C(=O)OC)P2(C)(C)OC(c3ccccc3)CN2C1(c1ccccc1)c1ccccc1 (configuration not stated)
T/C [7]: 98 % of control | T/C [8]: 100 % of control | T/C [9]: 91 % of control

Cc1cn(CCCn2cnc3cncnc32)c(=O)[nH]c1=O
T/C (dose: 50.0 mg/kg/injection, schedule: Q01DX005 (ip), vehicle: suspension in saline): 98 % of control | T/C (dose: 100.0 mg/kg/injection, schedule: Q01DX005 (ip), vehicle: suspension in saline): 105 % of control | T/C (dose: 200.0 mg/kg/injection, schedule: Q01DX005 (ip), vehicle: suspension in saline): 96 % of control

O=C1C(Cl)=C(Nc2ccc(C#Cc3ccccc3)cc2)C(=O)C(Cl)=C1Nc1ccc(C#Cc2ccccc2)cc1
T/C [4]: 91 % of control | T/C [5]: 91 % of control | T/C [6]: 87 % of control
